# Source: patent EP3860599B1, “(+)-ALPHA-DIHYDROTETRABENAZINE DOSAGE REGIMEN FOR TREATING MOVEMENT DISORDERS” (Adeptio Pharmaceuticals Limited, priority 2018, dated 2020)
# Like-named read-outs stand apart in the source and are kept apart here.
# Key:
# Assay type in all cases: in vivo
# [1] = molecular target: T1, VMAT2 (Homo sapiens, UniProt Q05940); assay: % VMAT2 blocking in caudate and putamen by PET scan 6-7 hours after oral dosing, Example 1B; settings: for receptor occupancy at 7.5 mg: po, 7.5 mg oral, PET scan 6-7 hours after administration
# T1 construct: from tissue
# Text: (§1) Complete blocking of VMAT2 is considered undesirable as this can lead to unwanted side effects, such as Parkinsonism. […] The levels of VMAT2 blocking can be determined by competitive binding studies using Positron Emission Tomography (PET). By co-administering a radioactive ligand with the compound of interest at various concentrations, the proportion of binding sites occupied can be determined (see for example, Matthews et al., "Positron emission tomography molecular imaging for drug development", Br. J. Clin. Pharmacol., 73:2, 175-186).
# Volunteers 1 and 2 were the same as volunteers 1 and 2 in Example 1A described above. […] Blood sample were taken from all volunteers at 2, 4, 6 and 7 hours after drug administration. In addition, in all volunteers PET scans were initiated at 6 hours after drug administration and these were stopped at 7 hours after drug administration.
# [2] = Plasma concentrations after oral dosing (solution in apple juice) of human volunteers, Example 1A; settings: for concentration at 1 h / concentration at 1.5 h / concentration at 2 h / concentration at 3 h / concentration at 0.5 h: human, plasma, po; for concentration at 0.5 h / plasma concentrations: 0.5 h
# Experimental: (+)-α-Dihydrotetrabenazine in defined amounts was administered by oral dosing (as a solution in apple juice) to six human volunteers. […] At 60 minutes after drug administration, PET scans were initiated and these were stopped at 120 minutes after drug administration. The experiment was carried out at dosages of 7.5 mg, 15 mg and 22.5 mg. […]
# [3] = molecular target: T1, VMAT2; assay: % VMAT2 blocking by PET scan after oral dosing of human volunteers, Example 1A
# Text: as §1
# Blood samples were taken at 30, 60, 120 and 180 minutes after drug administration. At 60 minutes after drug administration, PET scans were initiated and these were stopped at 120 minutes after drug administration.
# The experiment was carried out at dosages of 7.5 mg, 15 mg and 22.5 mg.
# [4] = 7.5 mg, subject 1 (112 kg), 7.5 mg oral
# [5] = 7.5 mg, subject 2 (76 kg), 7.5 mg oral
# [6] = 7.5 mg, subject 3 (129 kg), 7.5 mg oral
# [7] = 7.5 mg, subject 4 (59 kg), 7.5 mg oral
# [8] = 7.5 mg, subject 5 (91 kg), 7.5 mg oral
# [9] = 7.5 mg, subject 6 (68 kg), 7.5 mg oral
# [10] = 15 mg, subject 1 (112 kg), 15 mg oral
# [11] = 15 mg, subject 2 (76 kg), 15 mg oral
# [12] = 15 mg, subject 3 (129 kg), 15 mg oral
# [13] = 15 mg, subject 4 (59 kg), 15 mg oral
# [14] = 15 mg, subject 5 (91 kg), 15 mg oral
# [15] = 15 mg, subject 6 (68 kg), 15 mg oral
# [16] = 22.5 mg, subject 1 (112 kg), 22.5 mg oral
# [17] = 22.5 mg, subject 2 (76 kg), 22.5 mg oral
# [18] = 22.5 mg, subject 3 (129 kg), 22.5 mg oral
# [19] = 22.5 mg, subject 5 (91 kg), 22.5 mg oral
# [20] = 22.5 mg, subject 6 (68 kg), 22.5 mg oral
# T1 sequence (Q05940 whole entry): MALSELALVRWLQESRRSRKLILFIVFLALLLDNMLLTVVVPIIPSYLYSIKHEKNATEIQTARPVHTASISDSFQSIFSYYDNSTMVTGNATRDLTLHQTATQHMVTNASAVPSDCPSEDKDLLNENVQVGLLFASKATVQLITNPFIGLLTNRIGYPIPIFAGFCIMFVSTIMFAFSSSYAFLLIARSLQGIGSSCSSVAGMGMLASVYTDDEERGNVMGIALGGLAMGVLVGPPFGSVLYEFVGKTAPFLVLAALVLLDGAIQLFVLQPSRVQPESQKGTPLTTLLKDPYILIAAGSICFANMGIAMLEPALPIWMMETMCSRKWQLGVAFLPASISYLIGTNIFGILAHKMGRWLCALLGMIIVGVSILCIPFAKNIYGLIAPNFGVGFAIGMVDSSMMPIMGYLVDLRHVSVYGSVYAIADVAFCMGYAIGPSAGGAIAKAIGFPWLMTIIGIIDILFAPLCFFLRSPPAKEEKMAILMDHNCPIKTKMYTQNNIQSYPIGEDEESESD
smiles,measurement,setting,value
"COc1cc2c(cc1OC)[C@H]1C[C@@H](O)[C@H](CC(C)C)CN1CC2 [(+)-α-dihydrotetrabenazine, (R,R,R)-3-isobutyl-9,10-dimethyloxy-1,3,4,5,7,11b-hexahydro-2H-pyrido[2,1-a]isoquinolin-2-ol]",% VMAT2 blocking,[1]; after 6 hours following administration of 7.5mg,greater than 30%
same,difference between the %VMAT2 blocking levels in the caudate and putamen regions of the striatum,"[1]; each subject, 7.5 mg",No significant difference
same,receptor occupancy at 7.5 mg,"[1]; Example 1B subject 1 (112 kg), read-out: %VMAT2 Occupancy Caudate",38%
same,receptor occupancy at 7.5 mg,"[1]; Example 1B subject 1 (112 kg), read-out: %VMAT2 Occupancy Putamen",39%
same,receptor occupancy at 7.5 mg,"[1]; Example 1B subject 2 (76 kg), read-out: %VMAT2 Occupancy Caudate",65%
same,receptor occupancy at 7.5 mg,"[1]; Example 1B subject 2 (76 kg), read-out: %VMAT2 Occupancy Putamen",63%
same,receptor occupancy at 7.5 mg,"[1]; Example 1B subject 3 (76 kg), read-out: %VMAT2 Occupancy Caudate",41%
same,receptor occupancy at 7.5 mg,"[1]; Example 1B subject 3 (76 kg), read-out: %VMAT2 Occupancy Putamen",42%
same,receptor occupancy at 7.5 mg,"[1]; Example 1B subject 4 (95 kg), read-out: %VMAT2 Occupancy Caudate",34%
same,receptor occupancy at 7.5 mg,"[1]; Example 1B subject 4 (95 kg), read-out: %VMAT2 Occupancy Putamen",32%
same,receptor occupancy at 7.5 mg,"[1]; Example 1B subject 5 (99 kg), read-out: %VMAT2 Occupancy Caudate",36%
same,receptor occupancy at 7.5 mg,"[1]; Example 1B subject 5 (99 kg), read-out: %VMAT2 Occupancy Putamen",36%
same,receptor occupancy at 7.5 mg,"[1]; Example 1B subject 6 (107 kg), read-out: %VMAT2 Occupancy Caudate",44%
same,receptor occupancy at 7.5 mg,"[1]; Example 1B subject 6 (107 kg), read-out: %VMAT2 Occupancy Putamen",49%
same,reduction of level of blocking after 6-7 hours compared to the %VMAT2 blocking after 1-2 hours following administration,"[1]; subject 1, 7.5 mg",30%
same,reduction of level of blocking after 6-7 hours compared to the %VMAT2 blocking after 1-2 hours following administration,"[1]; subject 2, 7.5 mg",11%
same,concentration at 1 h,[2]; [4],0.94 ng/mL
same,concentration at 1.5 h,[2]; [4],2.39 ng/mL
same,concentration at 2 h,[2]; [4],2.44 ng/mL
same,concentration at 3 h,[2]; [4],3.01 ng/mL
same,concentration at 0.5 h,[2]; [5],0.531 ng/mL
same,concentration at 1 h,[2]; [5],13.7 ng/mL
same,concentration at 1.5 h,[2]; [5],10.8 ng/mL
same,concentration at 2 h,[2]; [5],14 ng/mL
same,concentration at 3 h,[2]; [5],22.2 ng/mL
same,concentration at 0.5 h,[2]; [6],0.216 ng/mL
same,concentration at 1 h,[2]; [6],4.35 ng/mL
same,concentration at 1.5 h,[2]; [6],6.91 ng/mL
same,concentration at 2 h,[2]; [6],5.03 ng/mL
same,concentration at 3 h,[2]; [6],6.96 ng/mL
same,concentration at 0.5 h,[2]; [7],8.43 ng/mL
same,concentration at 1 h,[2]; [7],15 ng/mL
same,concentration at 1.5 h,[2]; [7],20.7 ng/mL
same,concentration at 2 h,[2]; [7],17.6 ng/mL
same,concentration at 3 h,[2]; [7],19.6 ng/mL
same,concentration at 0.5 h,[2]; [8],6.68 ng/mL
same,concentration at 1 h,[2]; [8],9.8 ng/mL
same,concentration at 1.5 h,[2]; [8],13.5 ng/mL
same,concentration at 2 h,[2]; [8],10.7 ng/mL
same,concentration at 3 h,[2]; [8],11.2 ng/mL
same,concentration at 1 h,[2]; [9],3.77 ng/mL
same,concentration at 1.5 h,[2]; [9],3.06 ng/mL
same,concentration at 2 h,[2]; [9],4.33 ng/mL
same,concentration at 3 h,[2]; [9],9.18 ng/mL
same,concentration at 0.5 h,[2]; [10],4.02 ng/mL
same,concentration at 1 h,[2]; [10],11.1 ng/mL
same,concentration at 1.5 h,[2]; [10],10.7 ng/mL
same,concentration at 2 h,[2]; [10],10.2 ng/mL
same,concentration at 3 h,[2]; [10],10.6 ng/mL
same,concentration at 0.5 h,[2]; [11],7.99 ng/mL
same,concentration at 1 h,[2]; [11],22.8 ng/mL
same,concentration at 1.5 h,[2]; [11],46.4 ng/mL
same,concentration at 2 h,[2]; [11],35.7 ng/mL
same,concentration at 3 h,[2]; [11],46.5 ng/mL
same,concentration at 0.5 h,[2]; [12],1.2 ng/mL
same,concentration at 1 h,[2]; [12],14.3 ng/mL
same,concentration at 1.5 h,[2]; [12],17.9 ng/mL
same,concentration at 2 h,[2]; [12],12 ng/mL
same,concentration at 3 h,[2]; [12],18.2 ng/mL
same,concentration at 0.5 h,[2]; [13],26.7 ng/mL
same,concentration at 1 h,[2]; [13],53.8 ng/mL
same,concentration at 1.5 h,[2]; [13],42.5 ng/mL
same,concentration at 2 h,[2]; [13],53.3 ng/mL
same,concentration at 3 h,[2]; [13],60.2 ng/mL
same,concentration at 0.5 h,[2]; [14],15.6 ng/mL
same,concentration at 1 h,[2]; [14],34.2 ng/mL
same,concentration at 1.5 h,[2]; [14],27.1 ng/mL
same,concentration at 2 h,[2]; [14],31.8 ng/mL
same,concentration at 3 h,[2]; [14],27.1 ng/mL
same,concentration at 0.5 h,[2]; [15],5.41 ng/mL
same,concentration at 1 h,[2]; [15],10.6 ng/mL
same,concentration at 1.5 h,[2]; [15],16.1 ng/mL
same,concentration at 2 h,[2]; [15],17.4 ng/mL
same,concentration at 3 h,[2]; [15],14.9 ng/mL
same,concentration at 0.5 h,[2]; [16],9.61 ng/mL
same,concentration at 1 h,[2]; [16],18 ng/mL
same,concentration at 1.5 h,[2]; [16],16.8 ng/mL
same,concentration at 2 h,[2]; [16],14.9 ng/mL
same,concentration at 3 h,[2]; [16],13.2 ng/mL
same,concentration at 0.5 h,[2]; [17],5.23 ng/mL
same,concentration at 1 h,[2]; [17],21.8 ng/mL
same,concentration at 1.5 h,[2]; [17],36.2 ng/mL
same,concentration at 2 h,[2]; [17],40.2 ng/mL
same,concentration at 3 h,[2]; [17],51.8 ng/mL
same,concentration at 0.5 h,[2]; [18],9.04 ng/mL
same,concentration at 1 h,[2]; [18],34.7 ng/mL
same,concentration at 1.5 h,[2]; [18],29.8 ng/mL
same,concentration at 2 h,[2]; [18],26.3 ng/mL
same,concentration at 3 h,[2]; [18],17.3 ng/mL
same,concentration at 0.5 h,[2]; [19],55.3 ng/mL
same,concentration at 1 h,[2]; [19],45.1 ng/mL
same,concentration at 1.5 h,[2]; [19],46.2 ng/mL
same,concentration at 2 h,[2]; [19],41.9 ng/mL
same,concentration at 3 h,[2]; [19],42.5 ng/mL
same,concentration at 0.5 h,[2]; [20],5.58 ng/mL
same,concentration at 1 h,[2]; [20],8.01 ng/mL
same,concentration at 1.5 h,[2]; [20],5.87 ng/mL
same,concentration at 2 h,[2]; [20],12.5 ng/mL
same,concentration at 3 h,[2]; [20],18.7 ng/mL
same,plasma concentrations,"[2]; subject 1 (112 kg), 7.5 mg oral",BLQ
same,plasma concentrations,"[2]; subject 6 (68 kg), 7.5 mg oral",BLQ
same,% VMAT2 blocking,"[3]; even in heavier individuals, doses as low as 7.5 mg",at least 50%
same,% VMAT2 blocking,"[3]; subject 1 (112 kg), 7.5 mg oral, PET scan 60-120 minutes after administration",54%
same,% VMAT2 blocking,"[3]; subject 1 (112 kg), 15 mg oral, PET scan 60-120 minutes after administration",73%
same,% VMAT2 blocking,"[3]; subject 1 (112 kg), 22.5 mg oral, PET scan 60-120 minutes after administration",75%
same,% VMAT2 blocking,"[3]; subject 2 (76 kg), 7.5 mg oral, PET scan 60-120 minutes after administration",73%
same,% VMAT2 blocking,"[3]; subject 2 (76 kg), 15 mg oral, PET scan 60-120 minutes after administration",83%
same,% VMAT2 blocking,"[3]; subject 2 (76 kg), 22.5 mg oral, PET scan 60-120 minutes after administration",82%
same,% VMAT2 blocking,"[3]; subject 3 (129 kg), 7.5 mg oral, PET scan 60-120 minutes after administration",62%
same,% VMAT2 blocking,"[3]; subject 3 (129 kg), 15 mg oral, PET scan 60-120 minutes after administration",69%
same,% VMAT2 blocking,"[3]; subject 3 (129 kg), 22.5 mg oral, PET scan 60-120 minutes after administration",74%
same,% VMAT2 blocking,"[3]; subject 4 (59 kg), 7.5 mg oral, PET scan 60-120 minutes after administration",84%
same,% VMAT2 blocking,"[3]; subject 4 (59 kg), 15 mg oral, PET scan 60-120 minutes after administration",89%
same,% VMAT2 blocking,"[3]; subject 5 (91 kg), 7.5 mg oral, PET scan 60-120 minutes after administration",73%
same,% VMAT2 blocking,"[3]; subject 5 (91 kg), 15 mg oral, PET scan 60-120 minutes after administration",79%
same,% VMAT2 blocking,"[3]; subject 5 (91 kg), 22.5 mg oral, PET scan 60-120 minutes after administration",82%
same,% VMAT2 blocking,"[3]; subject 6 (68 kg), 7.5 mg oral, PET scan 60-120 minutes after administration",60%
same,% VMAT2 blocking,"[3]; subject 6 (68 kg), 15 mg oral, PET scan 60-120 minutes after administration",76%
same,% VMAT2 blocking,"[3]; subject 6 (68 kg), 22.5 mg oral, PET scan 60-120 minutes after administration",62%
